Results from publication PMC6272893, “NO-Releasing Enmein-Type Diterpenoid Derivatives with Selective Antiproliferative Activity and Effects on Apoptosis-Related Proteins” (Molecules, 2016).

Key:
Bel-7402 cells [1] = assay: MTT antiproliferative assay, Bel-7402; format: cell-based, human
Method: [The source words this procedure for another cell line and reports this cell line under the same test.] (§1) Cytotoxicity assay in vitro was employed by the MTT assay following the methodology described previously, which was performed in flat-bottomed 96-well plates. In short, exponentially growing MGC-803 cells at the log phase were added to each well at a density of 5 × 10^3 per well, then treated with serial dilutions of the compounds in three replicates at various concentrations (0.039–40 µg/mL). After 72 h, 20 µL of MTT solution (5 mg/mL) per well was added to each cultured medium. Then, DMSO was added to each well (150 µL/well). After 10 min at room temperature, the absorbance (OD) was read on a microplate reader at the wavelength of 490 nm (BIO-RAD Instruments Inc. 550, Hercules, CA, USA). In these experiments, taxol was used as the positive reference with the concentration of 10 µg/mL.

L-02 normal liver cells = assay: MTT antiproliferative assay, L-02; format: cell-based
Method: [The source words this procedure for another cell line and reports this cell line under the same test.] as §1

K562 cells = assay: MTT antiproliferative assay, K562; format: cell-based, human
Method: [The source words this procedure for another cell line and reports this cell line under the same test.] as §1

MGC-803 cells = assay: MTT antiproliferative assay, MGC-803; format: cell-based, human
Method: as §1

CaEs-17 cells = assay: MTT antiproliferative assay, CaEs-17; format: cell-based, human
Method: [The source words this procedure for another cell line and reports this cell line under the same test.] as §1

Bel-7402 cells [2] = assay: Cell cycle study by PI flow cytometry; format: cell-based, human; details: for G2 phase cells: control 20.72%; for cells at the S phase: control 34.65%
Method: Progression through the cell cycle was assessed by flow cytometry DNA determination with PI. Bel-7402 cells were plated in 6-well plates (5.0 × 10^3 cells/well) and incubated at 37 °C for 24 h. Exponentially growing cells were then incubated with tested compound at a certain concentration in triplicate. Untreated cells (control) or cells treated with the solvent (DMSO) of the compound were included. After 48 h treatment, cells were centrifuged and fixed in 70% ethanol at 4 °C overnight and subsequently resuspended in PBS containing 100 μL RNase A and 400 μL PI. Cellular DNA content, for cell cycle distribution analysis, was measured using a flow cytometer (FACS Calibur Becton-Dickinson, Franklin Lake, NJ, USA).
Figure 4 Influence of the cell cycle arrest of S phase by 10f in Bel-7402 cells: Bel-7402 cells were incubated with the indicated concentrations of 10f for 24 h and the cells were stained with propidium iodide (PI). Cellular DNA content, for cell cycle distribution analysis, was measured using a flow cytometer. The diagrams show the distribution of the cells according to their DNA content. The inserts give the percentages of cells in different cell cycle phases. TEXT PRINTED IN THE PICTURE: Control group: G1: 44.64%; S: 34.65%; G2: 20.72% | no label printed: G1: 42.41% (1 μM); S: 40.27% (1 μM); G2: 17.32% (1 μM); G1: 43.10% (1.5 μM); S: 48.11% (1.5 μM); G2: 8.79% (1.5 μM); G1: 40.63% (2 μM); S: 53.34% (2 μM); G2: 6.02% (2 μM) DOUBTS OF THE COPYIST ABOUT THIS PICTURE: The picture prints no label for the treated substance, only the concentrations 1 μM, 1.5 μM and 2 μM, so the substance is left blank and the concentrations are given as conditions. / Control group is an untreated reference, not a substance. It is listed because the picture prints its values under that label.

Bel-7402 cells [3] = assay: Annexin V-FITC/PI apoptosis assay; format: cell-based, human; details: 24 h, control 8.27%
Method: The Bel-7402 cells were seeded in 6-well plates to grow overnight, and then treated with or without 10f at indicated concentrations in triplicate for 24 h. Cells were then washed twice in PBS and resuspended in annexin V binding buffer. Annexin V-FITC was then added and the mixture was incubated for 15 min under dark conditions at 25 °C. PI was added just prior to acquisition. Apoptosis was analyzed using annexin V and PI double-staining by flow cytometry according to the manufacturer’s instructions in order to detect apoptotic cells.
Figure 5 Apoptosis in Bel-7402 cells by treatment with 10f: Bel-7402 cells were incubated with different concentrations of 10f for 24 h and the cells were stained with annexin V-FITC and PI, followed by flow cytometry analysis. TEXT PRINTED IN THE PICTURE: Control: 2.67%; 2.37%; 89.06%; 5.90% | no label printed: 2.07% (1.0 μM); 4.15% (1.0 μM); 74.53% (1.0 μM); 19.26% (1.0 μM); 5.69% (1.5 μM); 15.20% (1.5 μM); 55.99% (1.5 μM); 23.12% (1.5 μM); 3.33% (2.0 μM); 26.65% (2.0 μM); 37.87% (2.0 μM); 32.15% (2.0 μM) DOUBTS OF THE COPYIST ABOUT THIS PICTURE: The picture prints no compound label for the treated plots, only the concentrations 1.0 μM, 1.5 μM and 2.0 μM, so the substance is left empty. / The picture prints no measure or quadrant name for the percentages. Each plot's values are given in the order upper left, upper right, lower left, lower right.

Bel-7402 cells [4] = assay: Mitochondrial membrane potential assay (JC-1); format: cell-based, human; details: 48 h, control 3.28%
Method: […] The percentage of cells with healthy or collapsed mitochondrial membrane potentials was monitored by flow cytometry analysis.
Figure 6 Effect of 10f on the mitochondrial membrane potentials of Bel-7402 cells: Bel-7402 cells were incubated with the indicated concentrations of 10f for 48 h prior to staining with JC-1. […] In each plot the first value is in the upper right quadrant and the second in the lower right quadrant.

[5] = tested on: apoptosis-related proteins in Bel-7402 cells; assay: Western blot of apoptosis-related proteins; format: cell-based, human; details: 10f 1.0, 1.5 and 2.0 μM, 48 h, concentration-dependent
Method: Bel-7402 cells were incubated in triplicate with different doses (1.0, 1.5 and 2.0 μM) of 10f for 48 h. After the protein concentrations were determined, individual cell lysates were separated by sodium dodecyl sulfate polyacrylamide gel electrophoresis (10% gel, SDS-PAGE) and transferred onto nitrocellulose membranes. After being blocked with 5% fat-free milk, the target proteins in the membranes were probed with monoclonal anti-Bax (KGA714), anti-Bcl2 (KGA715), anti-caspase 3 (KGA717), anti-caspase 9 (KGA720), anti-cyto C (KGA723), and anti-β-actin antibodies (KGA731, KeyGEN Biotech, Nanjing, China), respectively. The relative levels of each signaling event to control β-actin were determined by densimetric scanning.
Figure 7 Western blotting of 10f on the expression of apoptosis-related proteins in Bel-7402 cells. 1: negative control; 2: 2.0 μM; 3: 1.5 μM; 4: 1.0 μM.

Structure (SMILES): C=C1C(=O)C23C(=O)OC4CCC(C)(C)C5C(=O)OCC45C2CCC1C3OC(=O)c1ccccc1C(=O)OCCCOc1no[n+]([O-])c1S(=O)(=O)c1ccccc1 (stereo not shown) [Compound 10f]
- IC50 (Bel-7402 cells [1]; Homo sapiens, Bel-7402, MTT, 72 h, mean ± S.D. of three experiments): 0.81 ± 0.06 µM
- fold stronger than 1, Bel-7402 (Bel-7402 cells [1]; IC50 compared with 1): 8.2 fold
- fold stronger than 9, Bel-7402 (Bel-7402 cells [1]; IC50 compared with 9): 18.7 fold
- IC50 (L-02 normal liver cells; MTT, 72 h, mean ± S.D. of three experiments, read-out: antiproliferative activity IC50, L-02): 29.9 ± 1.4 µM
- SI (selectivity index) (L-02 normal liver cells; selectivity between tumor and normal liver cells): 36.9
- IC50 (K562 cells; Homo sapiens, K562, MTT, 72 h, mean ± S.D. of three experiments): 1.73 ± 0.04 µM
- fold stronger than 1, K562 (K562 cells; IC50 compared with 1): 1.8 fold
- IC50 (MGC-803 cells; Homo sapiens, MGC-803, MTT, 72 h, mean ± S.D. of three experiments): 1.18 ± 0.1 µM
- fold stronger than 1, MGC-803 (MGC-803 cells; IC50 compared with 1): 3.8 fold
- fold stronger than 9, MGC-803 (MGC-803 cells; IC50 compared with 9): 3.9 fold
- IC50 (CaEs-17 cells; Homo sapiens, CaEs17, MTT, 72 h, mean ± S.D. of three experiments): 3.77 ± 0.3 µM
- fold stronger than 1, CaEs-17 (CaEs-17 cells; IC50 compared with 1): 1.9 fold
- fold stronger than 9, CaEs-17 (CaEs-17 cells; IC50 compared with 9): 5.3 fold
- G2 phase cells (Bel-7402 cells [2]; 10f 1.0 μM): 17.32%
- cells at the S phase (Bel-7402 cells [2]; 10f 1.0 μM): 40.27%
- G2 phase cells (Bel-7402 cells [2]; 10f 1.5 μM): 8.79%
- cells at the S phase (Bel-7402 cells [2]; 10f 1.5 μM): 48.11%
- G2 phase cells (Bel-7402 cells [2]; 10f 2.0 μM): 6.02%
- cells at the S phase (Bel-7402 cells [2]; 10f 2.0 μM): 53.34%
- apoptotic cell rates (early and late) (Bel-7402 cells [3]; 10f 1.0 μM): 23.41%
- apoptotic cell rates (early and late) (Bel-7402 cells [3]; 10f 1.5 μM): 38.32%
- apoptotic cell rates (early and late) (Bel-7402 cells [3]; 10f 2.0 μM): 58.80%
- cells with collapsed mitochondrial membrane potentials (Bel-7402 cells [4]; 10f 0.5 μM): 17.76%
- cells with collapsed mitochondrial membrane potentials (Bel-7402 cells [4]; 10f 1.5 μM): 33.44%
- cells with collapsed mitochondrial membrane potentials (Bel-7402 cells [4]; 10f 2.0 μM): 47.63%
- anti-apoptotic Bcl-2 expression [5]: downregulation
- expression of proapoptotic caspase-3, -8, -9, Bax, FAS, and cytochrome c [5]: upregulation
- melting point: 151 to 154 °C
